Laboratory results published in US10696647B2, “Pharmacological treatment of obsessive-compulsive disorder” (BIOCODEX, priority 2013, dated 2020).
Several values for one entry are separate records, joined by “and”; a condition that tells them apart may be missing. Equal entries are not always repeated.

Key:
Type in all cases: in vivo, NMRI mice
[1] = system: marble-burying behavior in mice; assay: Marble-burying behavior in mice (model of obsessive-compulsive disorder); details: for number of marbles buried (at least 2/3 buried, counted after 30 min): vs vehicle; for dose at which the decrease in number of marbles buried reached significance: p<0.05 vs vehicle
Excerpt: Marble-burying behavior in the rodent is considered to be a model of obsessive-compulsive disorder (OCD) and is commonly used to assess the activity of candidate compounds in the prevention or treatment of OCD (Ishimaru et al. (1995) Jpn. J. Pharmacol. 68:65-70; Gaikwad & Parle (2010) Asian Journal of Pharmaceutical and Clinical Research 3:101-103; Prajapati et al. (2011) Pharmacognosy Res. 3:62-66). […] In addition, because the motor behavior can interfere with the burying behavior, the effects of stripentol in the rota rod test and spontaneous locomotion have been also evaluated.
(§1) Six-week old NMRI mice (30-32 g) were purchased from Janvier breeding (Le Genest-St Isle; France). Mice were housed ten per translucent polypropylene cage (internal dimensions; 37.5 cm×37.5 cm×[…], L×W×H) under standard laboratory conditions (22±2° C., 12-h light/dark cycle, lights on at 7:00 AM) with food (AO4, SAFE, France) and tap water available ad libitum. No less than one week of rest followed their arrival. All animal procedures were carried out in accordance with the European Community council directive of 24 of Nov. 1986 (86/609/EEC) for the care and use of laboratory animals and the French government guidelines (authorization C60-159-04—December, 2009).
Mice were habituated to the testing room at least 60 min before any behavioural evaluation. All tests took place between 9:00 AM and 3:00 PM unless otherwise stated. The behavioural tests were performed by different well-trained experimenters who were kept unaware of the treatment administered. All experiments were performed in a randomized manner.
The marble-burying behavior of mice was conducted according to the methodology of Njung'e and Handley (1991) Pharmacol Biochem Behav 1991; 38: 63-67. Briefly, each mouse was placed individually in a polycarbonate cage (Type S-River; 26.5×16×14 cm height) containing 20 clean glass marbles of diameter 1.5 cm evenly spaced on 5 cm deep sawdust. The cage-lid was a metal grid. No food or water was present. The marbles were cleaned with an alcohol solution (10%; v/v) between each animal. The number of marbles at least ⅔ buried was counted 30 min later.
These compounds were administered under a volume of 0.1 ml/10 g of body weight. Control animals received an equivalent volume of vehicle.
All data are expressed as mean±SEM. The number of marble buried, locomotor activity and the time spent on the rot rod were analyzed by one-way analyse of variance (ANOVA) or the Kruskall Wallis procedure followed post-hoc by the Dunnett's test or Dunn's method respectively to locate the differences between the treated groups and the vehicle group. Differences were considered statistically significant when p<0.05. Statistical tests were run using SigmaStat v3.5 (SPSS, inc, Chicago, Ill., USA).

rotarod performance time = assay: Rotarod test (motor performance and coordination); details: doses up to 200 mg/kg i.p.; 16 rpm, up to 120 s
Experimental: as §1
Mice were habituated to the testing room at least 60 min before any behavioural evaluation. […]
The rotarod test was performed in accordance with the teachings of Kohara et al. (2005) J Pharmacol Exp Ther 2005; 315: 163-169. […] In the drug evaluation session, rotarod performance time was measured three times, up to 120 s, and the mean was adopted as the performance time for each animal. […]
(§2) All data are expressed as mean±SEM. The number of marble buried, locomotor activity and the time spent on the rot rod were analyzed by one-way analyse of variance (ANOVA) or the Kruskall Wallis procedure followed post-hoc by the Dunnett's test or Dunn's method respectively to locate the differences between the treated groups and the vehicle group. […]

spontaneous locomotion = assay: Spontaneous locomotor activity (distance travelled, rearings); details: up to 200 mg/kg i.p.; measured for 30 min
Experimental: as §1, with “2009). […]” for “2009).”
Testing occurred in a quiet room under a light level of approximately 400 lux. […] Locomotor activity and rearing were measured by vibrations analysis and the interruption of infra-red beams respectively (ActiV-Meter; Software BIO-ACTIV; Bioseb-Vitrolles-France). The distance travelled (in cm) and the number of rearings were measured for 30 min. […]
as §2

CN(C)CCCN1c2ccccc2CCc2ccc(Cl)cc21 [clomipramine]
number of marbles buried (at least 2/3 buried, counted after 30 min) ([1]; clomipramine 5-20 mg/kg i.p. 30 min before testing, H(3)=20.412, p<0.001): significantly reduced the number of marbles buried | dose at which the decrease in number of marbles buried reached significance ([1]; clomipramine i.p. 30 min before testing): 10 mg/kg and 20 mg/kg

CC(C)(C)C(O)/C=C/c1ccc2c(c1)OCO2 (racemic) [stiripentol]
number of marbles buried (at least 2/3 buried, counted after 30 min) ([1]; stiripentol 100-200 mg/kg i.p. 60 min before testing, F(3.42)=5.425, p=0.003): dose-dependently decreased the number of marbles buried | dose at which the decrease in number of marbles buried reached significance ([1]; stiripentol i.p. 60 min before testing): 200 mg/kg | time spent on the rota rod (rotarod performance time): without any significant effect | distance travelled (spontaneous locomotion): did not significantly modify the distance travelled | number of rearings (spontaneous locomotion): did not significantly impair the number of rearings
